# Measurements published in patent US9126999B2, “Tetrahydropyrazolopyrimidine compounds” (EISAI R&D MANAGEMENT CO., LTD., priority 2012, dated 2015).
# How the values were obtained:
# Human TLR9 = biological target: T1, Human TLR9 (Homo sapiens, UniProt Q9NR96); experiment: Human PBMC cell-based assay, CpG-ODN stimulus, IL-6 ELISA; parameters: endogenous in cells; host or cells: primary human PBMC from healthy donor blood; conditions: Hu PBMC; ligand CpG-ODN; analyte IL-6
# T1 sequence (Q9NR96 26-1032): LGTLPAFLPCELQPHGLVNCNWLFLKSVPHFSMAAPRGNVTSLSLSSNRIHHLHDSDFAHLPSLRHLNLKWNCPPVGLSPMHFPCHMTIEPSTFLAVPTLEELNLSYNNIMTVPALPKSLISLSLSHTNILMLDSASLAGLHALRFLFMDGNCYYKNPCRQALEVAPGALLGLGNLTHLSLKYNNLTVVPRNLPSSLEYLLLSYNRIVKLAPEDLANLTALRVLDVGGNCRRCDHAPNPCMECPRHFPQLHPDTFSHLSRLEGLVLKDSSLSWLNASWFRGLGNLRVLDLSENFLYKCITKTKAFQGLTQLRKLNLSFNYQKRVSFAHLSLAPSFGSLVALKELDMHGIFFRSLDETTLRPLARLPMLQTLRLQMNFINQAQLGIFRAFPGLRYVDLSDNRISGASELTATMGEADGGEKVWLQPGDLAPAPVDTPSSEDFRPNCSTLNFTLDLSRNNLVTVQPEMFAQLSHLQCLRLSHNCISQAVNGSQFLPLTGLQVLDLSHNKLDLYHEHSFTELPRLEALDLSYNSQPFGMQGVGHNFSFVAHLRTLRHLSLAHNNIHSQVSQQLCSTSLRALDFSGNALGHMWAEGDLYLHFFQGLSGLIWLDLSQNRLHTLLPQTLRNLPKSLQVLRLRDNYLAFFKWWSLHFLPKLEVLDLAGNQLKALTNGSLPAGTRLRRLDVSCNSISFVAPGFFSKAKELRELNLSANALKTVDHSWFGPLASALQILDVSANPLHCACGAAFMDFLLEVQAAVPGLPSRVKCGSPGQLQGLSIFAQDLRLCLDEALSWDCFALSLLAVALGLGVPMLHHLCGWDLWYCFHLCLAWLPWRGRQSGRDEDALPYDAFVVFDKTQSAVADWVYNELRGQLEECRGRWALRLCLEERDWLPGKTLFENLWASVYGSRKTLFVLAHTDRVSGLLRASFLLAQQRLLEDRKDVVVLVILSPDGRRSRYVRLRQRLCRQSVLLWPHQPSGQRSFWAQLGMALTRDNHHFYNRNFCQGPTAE
# Protocol: (§1) Human peripheral blood mononuclear cells (PBMC) were isolated from freshly-drawn heparinized (10 USP units/ml, Hospira, Lakeforest, Ill.) healthy donor whole blood by density gradient (Histopaque® 1077, Sigma, Inc., St. Louis, Mo.). Briefly, 25 ml blood was diluted with 15 ml PBS (without Ca^2+, Mg^2+) in a 50 ml conical tube, and 12 ml Histopaque was underlaid using a spinal needle. Tubes were centrifuged for 45 minutes at 1200 rpm (350×g), and PBMC were collected from the buffy coat. Cells were then washed twice in PBS, and red blood cells were lysed by suspension in 5 ml ammonium chloride solution (1× Red Blood Cell Lysis Buffer, eBioscience) for 5 minutes at room temperature. […]
# (§2) Antagonist compounds solubilized and serial diluted in 100% DMSO were added in triplicate to cells to yield a final concentration of 0.1% DMSO (v/v). […] Cell culture supernatants were collected, and levels of various human cytokines were assessed as indicated by standard ELISA procedure according to the manufacturer's recommended protocol (BD Biosciences, Inc., San Diego, Calif.).
# Human TLR1/2 = biological target: T2, Human TLR1/2 (Homo sapiens, UniProt O60603+Q15399); experiment: Human PBMC cell-based assay, Pam3CSK4 stimulus, IL-6 ELISA; conditions: Hu PBMC; ligand Pam3CSK4; analyte IL-6
# T2 construct: endogenous in cells; host or cells: primary human PBMC from healthy donor blood
# Protocol: as §1, §2
# Human TLR7/8 = system: T3, Human TLR7/8; experiment: Human PBMC cell-based assay, RNA-Ig (SL4-Ig) stimulus, cytokine ELISA; conditions: Hu PBMC; ligand RNA-Ig; analyte IP-10
# T3 construct: IC50; other: Hu PBMC; ligand RNA-Ig; analyte IP-10
# Procedure, shortened: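 Ficoll-isolated human PBMC treated in triplicate with antagonist (final 0.1% DMSO), then stimulated with RNA-Ig (SL4-Ig) complex preincubated 15-30 min. Incubation 20 h at 37° C., 5% CO2; supernatant cytokines quantified by ELISA.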
# T2 sequence (Q15399 25-786): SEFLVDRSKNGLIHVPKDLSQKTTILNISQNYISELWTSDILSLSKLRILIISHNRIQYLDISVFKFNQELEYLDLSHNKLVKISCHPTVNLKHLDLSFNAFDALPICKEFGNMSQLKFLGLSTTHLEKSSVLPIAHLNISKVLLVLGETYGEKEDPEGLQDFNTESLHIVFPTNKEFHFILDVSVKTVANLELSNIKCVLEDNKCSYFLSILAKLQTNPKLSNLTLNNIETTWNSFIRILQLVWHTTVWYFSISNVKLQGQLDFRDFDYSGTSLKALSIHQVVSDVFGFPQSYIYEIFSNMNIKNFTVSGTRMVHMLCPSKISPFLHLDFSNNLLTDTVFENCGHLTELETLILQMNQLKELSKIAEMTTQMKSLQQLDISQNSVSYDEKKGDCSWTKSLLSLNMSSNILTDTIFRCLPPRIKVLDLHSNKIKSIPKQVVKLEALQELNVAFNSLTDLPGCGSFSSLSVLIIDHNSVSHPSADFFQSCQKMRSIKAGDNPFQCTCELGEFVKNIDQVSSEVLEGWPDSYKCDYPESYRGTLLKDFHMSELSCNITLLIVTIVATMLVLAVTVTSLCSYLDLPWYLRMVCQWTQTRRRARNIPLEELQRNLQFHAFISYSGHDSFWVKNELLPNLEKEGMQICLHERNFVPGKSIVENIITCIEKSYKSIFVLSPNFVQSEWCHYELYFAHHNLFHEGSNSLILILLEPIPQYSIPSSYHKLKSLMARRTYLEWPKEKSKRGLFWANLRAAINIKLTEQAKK
# T2 sequence (O60603 19-784 limits assumed): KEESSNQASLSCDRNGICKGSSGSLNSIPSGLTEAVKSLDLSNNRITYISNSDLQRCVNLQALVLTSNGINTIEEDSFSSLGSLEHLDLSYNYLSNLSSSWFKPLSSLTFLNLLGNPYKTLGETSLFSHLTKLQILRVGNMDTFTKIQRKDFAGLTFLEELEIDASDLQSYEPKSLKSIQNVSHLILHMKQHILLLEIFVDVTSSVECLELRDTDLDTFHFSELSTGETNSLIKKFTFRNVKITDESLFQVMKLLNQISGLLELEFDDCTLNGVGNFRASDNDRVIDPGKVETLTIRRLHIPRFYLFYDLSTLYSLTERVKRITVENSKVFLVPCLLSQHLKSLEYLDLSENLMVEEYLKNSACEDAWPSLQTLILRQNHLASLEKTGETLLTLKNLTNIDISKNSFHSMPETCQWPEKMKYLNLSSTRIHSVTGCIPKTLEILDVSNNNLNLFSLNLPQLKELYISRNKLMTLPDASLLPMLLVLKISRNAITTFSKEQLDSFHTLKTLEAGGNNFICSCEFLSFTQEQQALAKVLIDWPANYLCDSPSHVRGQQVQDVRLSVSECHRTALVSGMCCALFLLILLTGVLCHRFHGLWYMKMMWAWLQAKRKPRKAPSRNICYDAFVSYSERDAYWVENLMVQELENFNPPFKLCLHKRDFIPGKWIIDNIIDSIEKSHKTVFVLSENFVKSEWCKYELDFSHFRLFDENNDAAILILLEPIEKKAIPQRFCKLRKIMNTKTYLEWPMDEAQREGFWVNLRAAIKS
structure (smiles),measurement,setting,value
"COc1ccc([C@@H]2C[C@H](C(F)(F)F)n3nc(-c4ccc(C(=O)N5CCNCC5)cc4)cc3N2)cc1OC [ER-892887, (4-((5S,7R)-5-(3,4-dimethoxyphenyl)-7-(trifluoromethyl)-4,5,6,7-tetrahydropyrazolo[1,5-a]pyrimidin-2-yl)phenyl)(piperazin-1-yl)methanone]",IC50,Human TLR9,> 10 µM
same,IC50,Human TLR1/2,> 10 µM
same,IC50,Human TLR7/8,45 nM
